{"source": "patent US20230330093A1", "about": "“APPLICATION OF NITROGEN-CONTAINING SATURATED HETEROCYCLIC COMPOUND” (SHANGHAI PHARMACEUTICALS HOLDING CO., LTD., priority 2020, published 2023)", "key": {"[1]": {"tested_on": "rhesus monkeys with spontaneous chronic kidney disease", "experiment": "Effect on BUN, 8-week administration", "assay_type": "in vivo, Macaca mulatta (Rhesus Macaque)", "protocol": "(§1) In the trial, animals were brought in three stages. […] Glomerular filtration rate […]: creatinine (Cr-P), urea nitrogen (BUN) and cystatin (CysC) were detected, and the eGFR value was obtained by calculation. It was performed once before the administration and once every two weeks after the administration. […] ELISA kit was used for NT-proBNP test. [table]"}, "[2]": {"tested_on": "rhesus monkeys with spontaneous chronic kidney disease", "experiment": "Effect on heart function, cardiac Doppler ultrasound, 8-week administration", "protocol": "In the trial, animals were brought in three stages.\nThis was performed once before administration and once after administration. UACR=MALB/Cr—U. • Blood pressure: the blood pressure was checked after anesthesia, including systolic blood pressure (SBP), diastolic blood pressure (DBP), mean blood pressure (MBP) and heart rate (HR). This was performed once before administration and once at weeks 4 and 8 respectively after administration. • Cardiac GE Doppler ultrasound: historical cardiac ultrasonography once within 1 year (selected animals), once before administration (within 30 days (D-30) of the baseline period), and once at week 8 after administration.\nAnesthesia method: 15 mg/kg of ketamine hydrochloride was used for intramuscular injection anesthesia. According to the animal anesthesia state, the supplemental anesthesia will be performed after judgment by veterinarian. Each supplemental anesthesia dose was ½ of the initial dose.\nDetection method: The animal was placed in the left decubitus position, and the 6S-RS probe (frequency 2.7-8.0 MHz) was used for image acquisition.\nAnalysis method: After the image was collected and saved, the supporting analysis workstation EchoPAC Software was used to repeatedly detect various indicators of systolic and diastolic functions in 3 consecutive cardiac cycles.\nTesting indicators and ultrasonic technology: see Table 9 below.\nTesting equipment: GE Vivid S5 color Doppler ultrasound diagnostic system."}, "[3]": {"tested_on": "rhesus monkeys with spontaneous chronic kidney disease", "experiment": "Effect on cystatin C (CysC), 8-week administration", "assay_type": "in vivo, Macaca mulatta (Rhesus Macaque)", "protocol": "as §1"}, "[4]": {"tested_on": "rhesus monkeys with spontaneous chronic kidney disease", "experiment": "Effect on NT-proBNP (ELISA), 8-week administration", "assay_type": "in vivo, Macaca mulatta (Rhesus Macaque)", "conditions": "1 mg/kg (n = 5), Baseline, single animals and Mean ± SD", "excerpt": "In the trial, animals were brought in three stages. […] ELISA kit was used for NT-proBNP test. [table]"}, "[5]": {"conditions": "1 mg/kg (n = 5), Baseline, single animals and Mean ± SD"}, "[6]": {"conditions": "2 mg/kg (n = 5), Baseline, single animals and Mean ± SD"}, "[7]": {"conditions": "5 mg/kg (n = 6), Baseline, single animals and Mean ± SD"}}, "note": "Where “and” joins values, the source holds several entries; their conditions need not be identical. Equal entries are not always repeated."}
{"smiles": "COC(=O)NCCCn1nc([C@@H](C)N(C(=O)[C@H]2CNCCO2)C2CC2)c2ccc(C)nc21.O=C(O)C[C@H](O)C(=O)O", "note": "[malate of compound of Formula I]", "values": [{"measurement": "BUN", "setting": "[1]; 1 mg/kg (n = 5), Baseline2, single animals and Mean ± SD", "value": "35.1 mg/dL and 32.4 mg/dL and 19.3 mg/dL and 39.8 mg/dL and 40.8 mg/dL"}, {"measurement": "BUN", "setting": "[1]; 1 mg/kg (n = 5), Baseline2, single animals and Mean ± SD, mean", "value": "33.5 ± 8.6", "unit": "mg/dL"}, {"measurement": "BUN", "setting": "[1]; 2 mg/kg (n = 5), 4 weeks", "value": "42.7 mg/dL and 37.1 mg/dL and 22.9 mg/dL and 41.6 mg/dL and 30.4 mg/dL"}, {"measurement": "BUN", "setting": "[1]; 2 mg/kg (n = 5), 4 weeks, mean", "value": "34.9 ± 8.3", "unit": "mg/dL"}, {"measurement": "BUN", "setting": "[1]; 2 mg/kg (n = 5), Baseline2, single animals and Mean ± SD", "value": "37.5 mg/dL and 24.2 mg/dL and 18.7 mg/dL and 42.1 mg/dL and 25.4 mg/dL"}, {"measurement": "BUN", "setting": "[1]; 2 mg/kg (n = 5), Baseline2, single animals and Mean ± SD, mean", "value": "29.6 ± 9.8", "unit": "mg/dL"}, {"measurement": "BUN", "setting": "[1]; 5 mg/kg (n = 6), Baseline2, single animals and Mean ± SD", "value": "18.6 mg/dL and 37.3 mg/dL and 41.3 mg/dL and 77.3 mg/dL and 18.1 mg/dL and 81.2 mg/dL"}, {"measurement": "BUN", "setting": "[1]; 5 mg/kg (n = 6), Baseline2, single animals and Mean ± SD, mean", "value": "45.6 ± 27.7", "unit": "mg/dL"}, {"measurement": "E/Ea", "setting": "[2]; 1 mg/kg (n = 5), 8 weeks", "value": "10.68 and 11.36 and 8.16 and 8.95 and 10.64"}, {"measurement": "Ea", "setting": "[2]; 1 mg/kg (n = 5), 8 weeks", "value": "5.35 cm/s and 5.65 cm/s and 6.99 cm/s and 5.37 cm/s and 5.06 cm/s"}, {"measurement": "LVEF", "setting": "[2]; 1 mg/kg (n = 5), 8 weeks", "value": "63.95% and 55.81% and 54.03% and 61.01% and 49.37%"}, {"measurement": "E/Ea", "setting": "[2]; 1 mg/kg (n = 5), Baseline", "value": "10.50 and 9.53 and 9.22 and 8.68 and 10.36"}, {"measurement": "Ea", "setting": "[2]; 1 mg/kg (n = 5), Baseline", "value": "5.90 cm/s and 6.31 cm/s and 4.81 cm/s and 5.18 cm/s and 6.37 cm/s"}, {"measurement": "LVEF", "setting": "[2]; [5]", "value": "65.25% and 55.89% and 54.86% and 69.87% and 47.92%"}, {"measurement": "E/Ea", "setting": "[2]; 2 mg/kg (n = 5), 8 weeks", "value": "10.63 and 6.35 and 7.84 and 9.88 and 6.22"}, {"measurement": "Ea", "setting": "[2]; 2 mg/kg (n = 5), 8 weeks", "value": "5.00 cm/s and 6.66 cm/s and 8.01 cm/s and 5.91 cm/s and 6.82 cm/s"}, {"measurement": "LVEF", "setting": "[2]; 2 mg/kg (n = 5), 8 weeks", "value": "58.54% and 67.80% and 57.13% and 58.03% and 62.85%"}, {"measurement": "LVEF", "setting": "[2]; [6]", "value": "54.41% and 70.41% and 57.45% and 57.90% and 62.76%"}, {"measurement": "E/Ea", "setting": "[2]; 5 mg/kg (n = 6), 8 weeks", "value": "7.38 and 9.25 and 8.22 and 6.12 and 11.07"}, {"measurement": "Ea", "setting": "[2]; 5 mg/kg (n = 6), 8 weeks", "value": "8.53 cm/s and 8.26 cm/s and 6.47 cm/s and 8.40 cm/s and 6.62 cm/s"}, {"measurement": "LVEF", "setting": "[2]; 5 mg/kg (n = 6), 8 weeks", "value": "62.99% and 45.89% and 73.88% and 54.16% and 55.90%"}, {"measurement": "LVEF", "setting": "[2]; [7]", "value": "63.71% and 42.11% and 71.95% and 49.98% and 59.46%"}, {"measurement": "LVEF % compared with the baseline", "setting": "[2]; 5 mg/kg, 8-week administration, 2 animals (No. 5073 and No. 287) with low ejection fraction", "value": "increased LVEF %"}, {"measurement": "adverse reaction in the systolic and diastolic function (echocardiography)", "setting": "[2]; rhesus monkey, in vivo", "value": "no obvious adverse reaction"}, {"measurement": "CysC", "setting": "[3]; 1 mg/kg (n = 5), 2 weeks", "value": "1.66 mg/L and 1.64 mg/L and 1.83 mg/L and 1.55 mg/L"}, {"measurement": "CysC", "setting": "[3]; 1 mg/kg (n = 5), 2 weeks, mean", "value": "1.70 ± 0.12", "unit": "mg/L"}, {"measurement": "CysC", "setting": "[3]; 1 mg/kg (n = 5), 4 weeks", "value": "1.49 mg/L and 1.43 mg/L and 1.57 mg/L and 1.76 mg/L and 1.50 mg/L"}, {"measurement": "CysC", "setting": "[3]; 1 mg/kg (n = 5), 4 weeks, mean", "value": "1.55 ± 0.13", "unit": "mg/L"}, {"measurement": "CysC", "setting": "[3]; 1 mg/kg (n = 5), 6 weeks", "value": "1.48 mg/L and 1.61 mg/L and 1.62 mg/L and 1.68 mg/L and 1.50 mg/L"}, {"measurement": "CysC", "setting": "[3]; 1 mg/kg (n = 5), 6 weeks, mean", "value": "1.58 ± 0.08", "unit": "mg/L"}, {"measurement": "CysC", "setting": "[3]; 1 mg/kg (n = 5), 8 weeks", "value": "1.51 mg/L and 1.59 mg/L and 1.62 mg/L and 1.77 mg/L"}, {"measurement": "CysC", "setting": "[3]; 1 mg/kg (n = 5), 8 weeks, mean", "value": "1.60 ± 0.11", "unit": "mg/L"}, {"measurement": "CysC", "setting": "[3]; [5]", "value": "1.67 mg/L and 1.80 mg/L and 1.72 mg/L and 1.84 mg/L and 1.75 mg/L"}, {"measurement": "CysC", "setting": "[3]; 1 mg/kg (n = 5), Baseline, single animals and Mean ± SD, mean", "value": "1.76 ± 0.07", "unit": "mg/L"}, {"measurement": "CysC", "setting": "[3]; 2 mg/kg (n = 5), 2 weeks", "value": "1.44 mg/L and 1.97 mg/L and 1.71 mg/L and 1.73 mg/L and 1.51 mg/L"}, {"measurement": "CysC", "setting": "[3]; 2 mg/kg (n = 5), 2 weeks, mean", "value": "1.67 ± 0.21", "unit": "mg/L"}, {"measurement": "CysC", "setting": "[3]; 2 mg/kg (n = 5), 4 weeks", "value": "1.31 mg/L and 1.77 mg/L and 1.56 mg/L and 1.43 mg/L and 1.47 mg/L"}, {"measurement": "CysC", "setting": "[3]; 2 mg/kg (n = 5), 4 weeks, mean", "value": "1.51 ± 0.17", "unit": "mg/L"}, {"measurement": "CysC", "setting": "[3]; 2 mg/kg (n = 5), 6 weeks", "value": "1.39 mg/L and 1.76 mg/L and 1.65 mg/L and 1.54 mg/L and 1.42 mg/L"}, {"measurement": "CysC", "setting": "[3]; 2 mg/kg (n = 5), 6 weeks, mean", "value": "1.55 ± 0.16", "unit": "mg/L"}, {"measurement": "CysC", "setting": "[3]; 2 mg/kg (n = 5), 8 weeks", "value": "1.36 mg/L and 1.68 mg/L and 1.58 mg/L and 1.55 mg/L and 1.47 mg/L"}, {"measurement": "CysC", "setting": "[3]; 2 mg/kg (n = 5), 8 weeks, mean", "value": "1.53 ± 0.12", "unit": "mg/L"}, {"measurement": "CysC", "setting": "[3]; [6]", "value": "1.57 mg/L and 1.87 mg/L and 1.72 mg/L and 1.69 mg/L and 1.56 mg/L"}, {"measurement": "CysC", "setting": "[3]; 2 mg/kg (n = 5), Baseline, single animals and Mean ± SD, mean", "value": "1.68 ± 0.13", "unit": "mg/L"}, {"measurement": "CysC", "setting": "[3]; 5 mg/kg (n = 6), 2 weeks", "value": "1.63 mg/L and 1.45 mg/L and 2.63 mg/L and 1.46 mg/L and 1.64 mg/L"}, {"measurement": "CysC", "setting": "[3]; 5 mg/kg (n = 6), 2 weeks, mean", "value": "1.74 ± 0.44", "unit": "mg/L"}, {"measurement": "CysC", "setting": "[3]; 5 mg/kg (n = 6), 4 weeks", "value": "1.68 mg/L and 1.73 mg/L and 1.64 mg/L and 2.41 mg/L and 1.36 mg/L and 1.44 mg/L"}, {"measurement": "CysC", "setting": "[3]; 5 mg/kg (n = 6), 4 weeks, mean", "value": "1.71 ± 0.37", "unit": "mg/L"}, {"measurement": "CysC", "setting": "[3]; 5 mg/kg (n = 6), 6 weeks", "value": "1.59 mg/L and 1.47 mg/L and 1.80 mg/L and 2.45 mg/L and 1.40 mg/L and 1.46 mg/L"}, {"measurement": "CysC", "setting": "[3]; 5 mg/kg (n = 6), 6 weeks, mean", "value": "1.70 ± 0.40", "unit": "mg/L"}, {"measurement": "CysC", "setting": "[3]; 5 mg/kg (n = 6), 8 weeks", "value": "1.46 mg/L and 1.69 mg/L and 1.66 mg/L and 2.29 mg/L and 1.50 mg/L and 1.39 mg/L"}, {"measurement": "CysC", "setting": "[3]; 5 mg/kg (n = 6), 8 weeks, mean", "value": "1.67 ± 0.33", "unit": "mg/L"}, {"measurement": "CysC", "setting": "[3]; [7]", "value": "1.49 mg/L and 1.63 mg/L and 1.61 mg/L and 2.52 mg/L and 1.47 mg/L and 1.55 mg/L"}, {"measurement": "CysC", "setting": "[3]; 5 mg/kg (n = 6), Baseline, single animals and Mean ± SD, mean", "value": "1.71 ± 0.40", "unit": "mg/L"}, {"measurement": "NT-proBNP", "setting": "[4]", "value": "88 pg/mL and 299 pg/mL and 127 pg/mL and 203 pg/mL and 44 pg/mL"}, {"measurement": "NT-proBNP", "setting": "[4]; mean", "value": "152 ± 101", "unit": "pg/mL"}]}
